Here are results for 26 compounds from US10626087B2, “Indoline and tetrahydroquinoline sulfonyl inhibitors of dimetalloenzymes and use of the same” (priority 2015, dated 2020).

This experiment addresses NDM-1 (Klebsiella pneumoniae, UniProt C7C422). Kind of experiment: Inhibition of NDM-1 assay (CHROMACEF hydrolysis, absorbance at 442 nm). In kind it is biochemical. Particulars: for Activity w/100 uM [I]: enzyme activity with 100 uM inhibitor; for Activity w/200 uM [I]: enzyme activity with 200 uM inhibitor. As to the method:
The ability of the compounds described herein to inhibit NDM-1 was determined in the following way.
A Substrate Working Solution was prepared from CRHROMACEF (6 μM) and Tween-20 (0.02% v/v) in water. An Enzyme Working Solution was prepared with NDM-1 (0.5 μg/mL), Hepes (0.1 M), pH 7 and Tween-20 (0.02% v/v). An Inhibitor Working Solution was prepared from 50 mM of the inhibitor in DMSO. The final assay conditions were 1 mL, Hepes (50 mM), pH 7, Tween-20 (0.02% v/v), CHROMACEF (3 uM), Δ35 NDM-1 (0.25 μg/mL). Extra zinc was omitted from these assays because extra ZnSO4 interferes with the metal binding groups in inhibitors.
[…] Supplemental DMSO was added to reach a final volume of 4 μL. NDM-1 Working Solution ([…]) was added to the cuvette and the inhibitor and enzyme were allowed to incubate for about 20 minutes. The reaction was initiated by added 0.5 mL Substrate Working Solution. The solution was mixed quickly, but gently to avoid bubble formation. […] to start the reaction. The reaction was mixed fast, but gently. The change in absorbance ΔΔAbs442nm/min was measured for each inhibitor from the linear slope from each inhibitor concentration.

Setting [1] is: *estimated or actual from a single point, target not given, values match the NDM-1 IC50 column, read-out: IC50 μM*.
Setting [2] is: fitted IC50 with error, read-out: NDM-1 IC50.

Where two headings read alike, the source gives them in different places.

Chain of NDM-1 (C7C422 36-270 limits assumed, looked up): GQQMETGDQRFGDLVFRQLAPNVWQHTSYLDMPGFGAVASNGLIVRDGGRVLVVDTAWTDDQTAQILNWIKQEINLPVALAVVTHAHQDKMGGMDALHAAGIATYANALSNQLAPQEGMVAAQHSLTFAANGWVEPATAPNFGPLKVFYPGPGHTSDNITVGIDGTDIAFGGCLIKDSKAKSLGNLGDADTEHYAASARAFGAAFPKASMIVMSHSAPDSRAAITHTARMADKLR

As for `CC(=O)N1CCc2cc(Br)c(S(=O)(=O)n3cc(C4(O)CCCCC4)nn3)cc21`, the “Activity w/100 uM [I]” value came to 53% and the “Activity w/200 uM [I]” value came out at 53%.
Broadly, the IC50 is the concentration at which inhibition is half-maximal. The term inhibition denotes the drop in the measured response relative to a control, in per cent. Low values mean a weak effect, high ones a strong effect. In turn, `CC(=O)N1CCc2cc(Br)c(S(=O)(=O)n3cc(C(C)(C)O)nn3)cc21` had an inhibition at 100 µM of 47% and an inhibition at 200 µM of 47%. The IC50 under setting [1] was 100 µM. Under setting [2], the IC50 turned out to be 100 µM.
Take `CC(=O)NS(=O)(=O)c1ccc2c(c1)N(C(C)=O)CC2`: the inhibition at 200 µM is 34%. Further, the IC50 under setting [1] is 300 µM. The inhibition at 50 µM (at 50 μM) amounted to 10%.
For the compound `CC(=O)N1CCc2cc(Br)c(S(=O)(=O)/N=C(\N)CC3(O)CCCC3)cc21`, testing at 200 µM gave an inhibition of 64.6%. Also, the IC50 under setting [1] is 55 µM. At 50 µM the inhibition (at 50 μM) was 42%.
What is called Ki is a measure of affinity in units of concentration, obtained from inhibition or displacement. Low readings indicate tighter binding, high ones weaker binding. Consider `CC(=O)N1CCc2cc(Br)c(S(=O)(=O)/N=C(\N)CC(C)(C)O)cc21` [drawing 104], for which the Ki stood at 6 µM, the inhibition at 100 µM was found to be 74% and the inhibition at 200 µM worked out at 93.6%. For the same compound, the IC50 under setting [1] was 22 µM. The IC50 under setting [2] was determined as 22 µM.
On to `CC(=O)N1CCc2cc(F)c(S(=O)(=O)NC(=O)CC(O)c3ccccc3)cc21` (stereo not drawn), for which, where the note is “at 50 μM”, the “NDM-1 % Inhibition” value was 13.7% and at 50 µM the inhibition was 12.8%.
`CC(=O)N1CCc2cc(Br)c(S(=O)(=O)/N=C(\N)CC3(O)CCCCC3)cc21`: the IC50 under setting [1] was 60 µM. For the same compound, at 50 µM the inhibition (at 50 μM) was 35%.
With `O=C(O)c1ccc(CN2C(=O)c3ccccc3C2=O)cc1`, the “Activity w/100 uM [I]” value was found to be 54% and the “Activity w/200 uM [I]” value is reported as 38%.
Take `CC(=O)N1CCc2cc(Br)c(S(=O)(=O)/N=C(\N)CC(C)(C)O)cc21` [drawing 95]: the “Activity w/100 uM [I]” value stood at 26% and the “Activity w/200 uM [I]” value was 6.4%.
As to `CC(=O)N1CCc2cc(Br)c(S(=O)(=O)NC(=O)CC(O)c3ccccc3)cc21` (stereo not drawn), testing at 5 µM gave an inhibition of 8.1%. Besides, the concentration for half-maximal inhibition (IC50) under setting [1] is 100 µM. Besides, the inhibition at 50 µM (at 50 μM) stood at 28.8%.
For `CC(=O)N1CCc2cc(Cl)c(S(=O)(=O)/C=C(\N)CC(O)c3ccccc3)cc21` (stereo not drawn), the inhibition at 5 µM is 58.4%. For the same compound, under setting [1], the IC50 is 3 µM. Besides, under “at 50 μM”, the inhibition at 50 µM stood at 96.9%.
With `CC(=O)N1CCc2cc(Br)c(S(=O)(=O)/N=C(\N)Cc3ccccc3)cc21` [drawing 109], the inhibition at 100 µM stood at 55.5% and at 200 µM the inhibition was 73.8%. In addition, the half-inhibitory concentration (IC50) under setting [1] was 110 µM. In addition, under setting [2], the IC50 stood at 110 µM.
As for `CC(=O)NS(=O)(=O)c1cc2c(cc1Br)CCN2C(C)=O`, at 500 µM the inhibition (at 500 μM) was 18%.
Take `CO/C(CC(C)(C)O)=N\S(=O)(=O)c1cc2c(cc1Br)CCN2C(C)=O` [MM-94]: the “Activity w/100 uM [I]” value came to 96% and the “Activity w/200 uM [I]” value came to 35%.
`CC(=O)N1CCc2cc(Br)c(S(=O)(=O)/N=C(\N)Cc3ccccn3)cc21` had an inhibition at 10 µM of 42.9%. Besides, the IC50 under setting [1] is 14 µM. For the same compound, at 50 µM the inhibition (at 50 μM) was 97%.
`CC(=O)N1CCc2cc(Br)c(S(=O)(=O)/C=C(\N)CC(O)c3ccccc3)cc21` (stereo not drawn) returned an inhibition at 5 µM of 75.4% and an inhibition at 25 µM of 98.5%. Moreover, the IC50 under setting [1] is 2.6 µM. In addition, the IC50 under setting [2] was determined as 2.62 µM.
`COC(=O)C/C(N)=N/S(=O)(=O)c1cc2c(cc1Br)CCN2C(C)=O`: the inhibition at 5 µM was 77.8%. Also, under setting [1], the IC50 is 2 µM.
`CC(=O)N1CCc2cc(Br)c(S(=O)(=O)n3cc(C(C)O)nn3)cc21` (stereo not drawn) yielded an inhibition at 5 µM of 73.8% and an inhibition at 25 µM of 95.1%. Moreover, the 50% inhibitory concentration (IC50) under setting [1] was 2.9 µM. Moreover, the IC50 under setting [2] worked out at 2.91 µM.
The compound `CC(=O)N1CCc2cc(Br)c(S(=O)(=O)/N=C(\N)CCO)cc21` showed an inhibition at 10 µM of 54%. For the same compound, the IC50 under setting [1] is 9 µM. This compound also came in with an inhibition at 50 µM (at 50 μM) of 90.3%.
For the compound `CC(=O)N1CCc2cc(Br)c(S(=O)(=O)NC(=O)CC(C)(C)O)cc21`, the inhibition at 10 µM came to 62.7%. Further, the half-inhibitory concentration (IC50) under setting [1] was 8.7 µM. This compound also returned an inhibition at 50 µM (at 50 μM) of 93%. The IC50 under setting [2] was 8.74 µM.
`CC(=O)N1CCc2cc(Cl)c(S(=O)(=O)NC(=O)CC(O)c3ccccc3)cc21` (stereo not drawn) displayed an inhibition at 5 µM of 15.5%. Moreover, under setting [1], the 50% inhibitory concentration (IC50) is 100 µM. Where the note is “at 50 μM”, this compound had an inhibition at 50 µM of 31.9%.
Compound `CC(=O)N1CCc2cc(Cl)c(S(=O)(=O)/N=C(\N)CCO)cc21` had an inhibition at 5 µM of 78.3%. Also, the IC50 under setting [1] is 1 µM. The compound further returned an inhibition at 50 µM (at 50 μM) of 99%.
`CC(=O)N1CCc2cc(Br)c(S(=O)(=O)n3cc(-c4ccccc4)nn3)cc21` gave an inhibition at 100 µM of 25%.
Take `CC(=O)N1CCc2cc(Br)c(S(=O)(=O)/N=C(\N)Cc3ccccc3)cc21` [MM-86]: the “Activity w/100 uM [I]” value amounted to 63% and the “Activity w/200 uM [I]” value is on record as 46%.
In turn, `CC(=O)N1CCc2cc(Cl)c(S(=O)(=O)/N=C(\N)CC(C)(C)O)cc21` yielded an inhibition at 5 µM of 19.9%. Further, the IC50 under setting [1] is 80 µM. This compound returned an inhibition at 50 µM (at 50 μM) of 32.7%.
On to `CN/C(CC(C)(C)O)=N\S(=O)(=O)c1cc2c(cc1Br)CCN2C(C)=O`, for which the IC50 under setting [1] was 49 µM. Testing at 50 µM (at 50 μM) gave an inhibition of 54.4%.
